Measured values from ChEMBL document CHEMBL2346618, “Synthesis and evaluation against hepatitis C virus of 7-deaza analogues of 2'-C-methyl-6-O-methyl guanosine nucleoside and L-Alanine ester phosphoramidates” (Bioorg Med Chem Lett, 2013).
pEC50: −log10 of the molar value.

Legend:
[1] = (§1) Cytotoxicity against human HuH7 cells; type: cell-based, Huh-7; conditions: HuH7 cells
[2] = system: Hepatitis C virus; test: Antiviral activity against Hepatitis C virus assessed as inhibition of viral replication; type: functional, organism-based, Hepacivirus hominis
[3] = system: Huh-7; test: Prodrug activation in human HuH7 cell lysate assessed as formation of ((2R,3R,4R,5R)-5-(2-amino-4-methoxy-7H-pyrrolo[2,3-d]pyrimidin-7-yl)-3,4-dihydroxy-4-methyltetrahydrofuran-2-yl)methyl dihydrogen phosphate by NMR assay; type: cell-based
[4] = Prodrug activation in trizma buffer assessed as formation of (2S)-2-((((2R,3R,4R,5R)-5-(2-amino-4-methoxy-7H-pyrrolo[2,3-d]pyrimidin-7-yl)-3,4-dihydroxy-4-methyltetrahydrofuran-2-yl)methoxy)(hydroxy)phosphorylamino)propanoic acid by NMR assay in presence of carboxypeptidase Y
[5] = system: Huh-7; test: Prodrug activation in human HuH7 cell lysate assessed as formation of ((2R,3R,4R,5R)-5-(2-amino-4-methoxy-7H-pyrrolo[2,3-d]pyrimidin-7-yl)-3,4-dihydroxy-4-methyltetrahydrofuran-2-yl)methyl dihydrogen phosphate after 48 hrs by NMR assay; type: cell-based; conditions: huh-7, 48 h
[6] = Prodrug activation in phosphate buffer at pH 7.4 after 4 hrs by UV analysis in presence of calf adenosine deaminase; conditions: pH 7.4, 4 h
[7] = system: Huh-7; test: as §1; type: cell-based; conditions: huh-7

| pEC50 ([2]; Hepatitis C virus) | SMILES | CC50 [1] [µM] | also measured |
| --- | --- | --- | --- |
| – | COc1nc(N)nc2c1ccn2[C@@H]1O[C@H](COP(=O)(O)O)[C@@H](O)[C@@]1(C)O | – | Drug metabolism [3]: Active |
| 4.89 | COc1nc(N)nc2c1ccn2[C@@H]1O[C@H](COP(=O)(N[C@@H](C)C(=O)OCC(C)(C)C)Oc2cccc3ccccc23)[C@@H](O)[C@@]1(C)O (some centres undefined) | 27 | Drug metabolism [4]: Active; Drug metabolism [5]: Not Active |
| < 4.00 | COc1nc(N)nc2c1ccn2[C@@H]1O[C@H](CO)[C@@H](O)[C@@]1(C)O | > 100 | Stability [6]: Stable |
| 5.52 | COc1nc(N)nc2c1ncn2[C@@H]1O[C@H](CO)[C@@H](O)[C@@]1(C)O [BETA-2'-C-METHYL-6-O-METHYL GUANOSINE] | > 100 | – |
| 5.05 | COc1nc(N)nc2c1ccn2[C@@H]1O[C@H](COP(=O)(N[C@@H](C)C(=O)OC2CCCCC2)Oc2cccc3ccccc23)[C@@H](O)[C@@]1(C)O (single isomer, unassigned; slow eluting) | 13 | – |
| 4.56 | COc1nc(N)nc2c1ccn2[C@@H]1O[C@H](COP(=O)(N[C@@H](C)C(=O)OCc2ccccc2)Oc2cccc3ccccc23)[C@@H](O)[C@@]1(C)O (some centres undefined) | 27 | – |
| – | COc1nc(N)nc2c1ccn2[C@@H]1O[C@H](COP(=O)(N[C@@H](C)C(=O)OC2CCCCC2)Oc2cccc3ccccc23)[C@@H](O)[C@@]1(C)O (single isomer, unassigned; fast eluting) | – | CC50 [7]: 18 µM; pEC50 [2]: 4.88 |

| SMILES | pEC50 ([2]; Hepatitis C virus) | CC50 [1] [µM] | also measured |
| --- | --- | --- | --- |
| COc1nc(N)nc2c1ncn2[C@@H]1O[C@H](COP(=O)(N[C@@H](C)C(=O)OCC(C)(C)C)Oc2cccc3ccccc23)[C@@H](O)[C@@]1(C)O (some centres undefined) [BMS-986094] | 8.00 | 6 | – |
| C[C@@]1(O)[C@H](O)[C@@H](CO)O[C@H]1n1ccc2c(N)ncnc21 [BETA-2'-C-METHYL-7-DEAZA-ADENOSINE] | 6.60 | > 100 | – |
| COc1nc(N)nc2c1ncn2[C@@H]1O[C@H](COP(=O)(N[C@@H](C)C(=O)OCc2ccccc2)Oc2cccc3ccccc23)[C@@H](O)[C@@]1(C)O (some centres undefined) | 7.70 | 11 | – |
| COc1nc(N)nc2c1ncn2[C@@H]1O[C@H](COP(=O)(N[C@@H](C)C(=O)OC2CCCCC2)Oc2cccc3ccccc23)[C@@H](O)[C@@]1(C)O (some centres undefined) | 7.52 | 6 | – |
